Assays:
human CB1 receptor = human CB1 receptor (Homo sapiens (Human), UniProt P21554); experiment: Membrane competition binding assay with [3H]-CP 55,940, CHO-CB1 membranes; details: CHO-CB1 cellular membranes, 2.5 nM [3H]-CP 55,940; read-out: Competition Binding Assay CB1 Receptor Ki
Source text: (§1) The cDNA clones for human HA-tagged CB1 and CB2 receptors were obtained from the Missouri S&T cDNA Resource Center (www.cdna.org) in cloning vector pcDNA3.1+. The vector containing the human CB2 receptor was transfected directly into CHO-KI cells obtained from ATCC. The HA-tagged human CB1 receptor sequence was subcloned into the pef4-V5-HisA vector with Kpn1 and Pme1 restriction enzymes and subsequently transfected into CHO-K1 cells. Cells were clonally isolated by limited dilution and screened by immunocytochemistry for expression of the HA tag.
(§2) Cells were maintained in DMEM/F12 media supplemented with 10% fetal bovine serum (FBS), 100 units/ml penicillin and 100 μg/ml streptomycin and 2 mM L-glutamine. Transfected cell lines were maintained with additional 150 ug/ml zeocin for pEF HA-CB1 transfected cells and 500 ug/ml G-418 for pcDNA HA-CB2 transfected cells (all reagents obtained from Invitrogen).
(§3) Cells were grown to confluence and harvested in ice cold phosphate buffered saline with 5 mM EDTA. Cells were spun at 200×g for 10 min and frozen at −80° C. until required. Cell pellets were thawed with cold 0.32 M sucrose and homogenised with a glass homogeniser. The homogenate was spun at 1000×g for 10 min at 4° C. and the supernatant spun in a Sorvall ultracentrifuge for 30 min at 100,000×g. The pellet was then washed in ice cold water and re-spun twice more. The final pellet was resuspended in 50 mM Tris pH 7.5, 0.5 mM EDTA. Protein concentration was determined using the Dc protein assay kit (BioRad, Hercules, Calif., USA).
(§4) Membranes (5-10 μg) were incubated with radioligand and a range of concentrations of test compounds in binding buffer (50 mM Tris pH 7.4, 5 mM MgCl2, 1 mM EDTA) with 0.5% (w/v) bovine serum albumin (BSA) (ICP Bio, New Zealand), at 30° C. for 60 min. Stock solutions of putative cannabinoid ligands were prepared in dimethyl sulfoxide to a concentration of 10 mM. Six different final concentrations of compounds were used ranging from 50 μM to 0.1 nM. […] Assays were terminated by addition of 2 ml ice cold binding buffer and filtration through GF/C filters (Whatman) pre-soaked in cold binding buffer, followed by two washes in the same buffer.
(§5) Radioactivity was determined by incubation of filters with Irgasafe scintillation fluid (PerkinElmer) and scintillation counting in a Wallac Trilux using Microbeta Trilux software. Data was analysed using the Prism 4.02 programme (GraphPad Software, San Deigo, Calif., USA).
(§6) All data was analyzed using Prism 4.02. For binding data the Ki was determined from IC50 values derived from competition binding data fitted with one site competition non-linear regression analysis by Prism 4.02 using the Kd values reported above.

human CB2 receptor [1] = target: T1, human CB2 receptor (Homo sapiens (Human), UniProt P34972); experiment: Membrane competition binding assay with [3H]-CP 55,940, CHO-CB2 membranes
Source text: as §1, §2, §3, §4, §5, §6

human CB2 receptor [2] = target: T1, human CB2 receptor; experiment: Membrane [35S]GTPγS binding assay; format: biochemical
Method: Human CB2 expressing CHO-K1 membranes (5 μg per incubation mixture) were diluted in 50 mM Tris-HCl (pH 7.5) and 0.5 mM EDTA and added to HU compounds in a pre-mixed incubation cocktail. Final incubation concentrations were 55 mM Tris-HCl (pH 7.4), 1 mM EDTA, 100 mM NaCl, 5 mM MgCl2, 0.5% BSA, 50 μM GDP, 0.2 nM [^35S]GTPγS (PerkinElmer) with varied HU compound concentration and 5 μg membrane. Incubations were continued for 60 minutes at 30° C. in a shaking water bath. Assays were terminated by addition of 2 ml ice cold wash buffer (50 mM Tris-HCl, pH 7.5 and 5 mM MgCl2) and filtration through pre-soaked GF/C filters (Whatman), followed by two further washes. adioactivity was determined as described for competition binding assays.
Data was analyzed using the Prism 4.02 programme (GraphPad Software, San Deigo, Calif., USA). IC50 and EC50 values, as determined from sigmoidal curves, were generated from drug concentrations plotted in log scale. […] It is possible to display data as an average, plus or minus the standard error of the mean in log form, however, this is not easily interpreted or compared to other values. It was therefore elected to calculate the 95% confidence interval for the mean value in log form and then convert the lower limit, mean and upper limit into the molar (linear) scale. […] Two-tailed t-tests for statistical analysis between enantiomeric pairs of compounds were performed for CB2 Ki values. The Pearson value, an indication of linearity, was determined for Ki and IC50 or EC50 results obtained for CB2 receptors in binding, cAMP or GTPγS experiments, respectively.

TNF-α = TNF-α production in brain following CHI (ELISA); format: in vivo, mice; details: HU-914 5 mg/kg i.p. 1 h after CHI, sacrificed 4 hrs after CHI
Method: TNF-α activity can be induced by ischemic and traumatic brain injury starting at 1-2 h and reaching the peak at 4 h following CHI. (Shohami et al., 1997). The next step was to investigate the effect of HU-914 on TNF-α production after CHI. Three groups of mice (n=5-6) were subjected to CHI: • Group 1 (Control): Sham controls received anesthesia and skin incision only. • Group 2: Vehicle only (ethanol:cremophor:saline at ratio of 1:1:18), i.p. 1 h after CHI. • Group 3: HU-914, 5 mg/kg, dissolved in vehicle (1:1:18 ethanol:cremophor:saline), i.p. 1 h after CHI.
The animals were sacrificed 4 hrs after CHI by decapitation. Brains were rapidly removed and dissected into ipsilateral and contralateral cortical and hippocampal segments that were frozen in liquid nitrogen and kept at […]. […] Following sonication on ice for 45 s and centrifugation at 12,000 rpm for 20 min, protein concentrations in the supernatants were determined using the Bradford method (Bio-Rad Laboratories, Munich, Germany). Supernatants were analyzed by enzyme-linked immunosorbent assay (ELISA) for production of TNF-α, using cytokine specific kit from R&D Systems (Minneapolis, Minn.). […] TNF-α elevation was not detected in the right cortex or hippocampus (FIG. 8).

human CB1 receptor, sequence (P21554 whole entry): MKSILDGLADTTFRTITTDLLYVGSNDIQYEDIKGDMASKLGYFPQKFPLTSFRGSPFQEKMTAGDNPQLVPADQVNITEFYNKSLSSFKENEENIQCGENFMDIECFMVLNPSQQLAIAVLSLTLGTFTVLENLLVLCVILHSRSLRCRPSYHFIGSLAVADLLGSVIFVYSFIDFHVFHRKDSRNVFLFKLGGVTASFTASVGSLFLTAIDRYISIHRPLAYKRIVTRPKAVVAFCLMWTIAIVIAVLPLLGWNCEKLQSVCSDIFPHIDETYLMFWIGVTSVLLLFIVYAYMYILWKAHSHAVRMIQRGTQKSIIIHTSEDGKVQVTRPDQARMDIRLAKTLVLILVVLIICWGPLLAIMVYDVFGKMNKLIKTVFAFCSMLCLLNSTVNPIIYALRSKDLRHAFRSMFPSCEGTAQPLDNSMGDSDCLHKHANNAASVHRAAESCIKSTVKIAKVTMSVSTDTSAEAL

SMILES	Ki (human CB1 receptor)	Ki (human CB2 receptor [1])	EC50 (human CB2 receptor [2])	Emax (human CB2 receptor [2]; read-out: [35S]GTPγS Emax)	TNF-α level, left cortex (TNF-α)	TNF-α production, hippocampus of the injured left hemisphere (TNF-α)
CCCCCCC(C)(C)c1cc(OC)c(C2=C[C@H]3CC[C@]2(CO)C3(C)C)c(OC)c1 [HU-910, (1S,4R)-(2-(2,6-dimethoxy-4-(2-methyloctan-2-yl)phenyl)-7,7-dimethylbicyclo[2.2.1]hept-2-en-1-yl)methanol]	1370 nM	6 nM	26.4 nM	121 ± 7%	–	–
CCCCCCC(C)(C)c1cc(OC)c(C2=C[C@H]3CC[C@]2(C(=O)O)C3(C)C)c(OC)c1 [HU-914, (1S,4R)-2-(2,6-dimethoxy-4-(2-methyloctan-2-yl)phenyl)-7,7-dimethylbicyclo[2.2.1]hept-2-ene-1-carboxylic acid]	> 50000 nM	1500 nM	–	–	did not affect the cytokine's level	inhibited TNF-α production
